From patent US8088422B2, “Purified pyrroloquinoline quinone fortified food” (Shanghai Medical Life Science Research Center, Ltd., Co., priority 2008, dated 2012)
≈ marks a conversion by molar mass, not a printed value.

Key:
[1] = system: Ampicillin resistant (AmpR) E. coli; test: OD600 measurement of bacterial growth in LB media with PQQ, Ampicillin resistant E. coli; assay type: cell-based; conditions: for OD600: AmpR, LB media, 37 degree C
Procedure: (§1) In one experiment, Top 10 E. coli and Ampicillin resistant (AmpR) E. coli are selected as bacterial samples. These bacterial samples are cultured separately in LB media in a number of tubes with various purified PQQ concentrations. LB media is prepared as following: Ten gram Bacto-tryptone, 5 g yeast extract and 10 g NaCl are added to 800 ml distilled H2O. The pH of the solution is adjusted to 7.5 with NaOH, and the final volume is adjusted to 1 L with distilled H2O. The LB media is autoclaved and filtered to be sterilized. The PQQ concentration range is prepared between 0 to 100 mg/Liter of LB media in the number of the tubes. The bacterial samples are inoculated into the tubes to the amount of 1×10^5/tube, incubated in 37 degree C. on shaking bench for designated time according to the following experiment designs. It is known that Ampicillin has no effect to the growth of Ampicillin resistant E. coli but can inhibit other bacteria growth. Therefore, the data from the Ampicillin experiment are focused on AmpR E. coli growth. While in the case of Top10 E. coli, other types of bacteria may grow in the culture as well.
(§2) Table 1 and FIG. 1 show OD600 value of samples from Top10 E. coli and Ampicillin resistant E. coli cultured at 6, 8, and 9.5 hours. OD600 is a measurement of the optical density at 600 nm wavelength light of a liquid media. The optical density is related to the amount of particle scattering of light. In this case, a high optical density indicates a large number of bacteria in the cultural sample, and OD600 datas are used in this invention disclosure as indication of numbers of bacteria in the liquid media, which is a standard method to monitor microorganism growth. The OD600 of cultured microorganism in liquid media is measured by photometer, using blank media as blank reference. To convert OD600 to the number of microorganism such as E. coli in the culture media, the converting formula is 1 OD=3.8×10^8. OD600 is a well known technique of monitoring bacterial growth to those of skilled in the art and so is not discussed further here.

[2] = Solubility of PQQ in water solution; assay type: physicochemical; conditions: 20 °C, aqueous buffer; 20-25 degree C., pH 7.0 water solution
[3] = system: DNA; conditions: 10 μM PQQ (3.3 mg/L), dependent on presence of NADH and Cu (II); cited from earlier work
[4] = system: Top10 E. coli; test: OD600 measurement of bacterial growth in LB media with PQQ, Top10 E. coli; assay type: cell-based; conditions: 37 degree C
Procedure: as §1, §2

[5] = Isoelectric point of PQQ; assay type: physicochemical
[6] = system: bacteria in non-pasteurized cow milk; test: OD600 of PQQ fortified non-pasteurized cow milk (FIG. 2); assay type: cell-based; conditions: PQQ 0, 0.1, 1, 10 mg/L, after 6 and 9 hour mixing at 37 degree C, then LB culture 24 hours
Procedure: In one embodiment of the present invention, the inhibition effect of purified PQQ to the growth of bacterial is utilized to preserve food products. […] The samples were prepared with purified PQQ concentration level of 0, 0.1, 1, and 10 mg/L. Next, the samples were shaken at 37 degree C. for 3, 6, and 9 hours, and then saved in a refrigerator under 4 degree C. On the next day, liquid culture media LB was added into the samples, followed by the samples cultured in shake flask for the next 24 hours and ready for OD600 test.
FIG. 2 presents the OD600 value as a function of purified PQQ concentration measured from the samples shake flask for 3, 6, and 9 hours.

O=C(O)c1cc(C(=O)O)c2c(n1)C(=O)C(=O)c1cc(C(=O)O)[nH]c1-2 [PQQ, Pyrroloquinoline quinone]
number of E. coli in AmpR sample (general trend, FIG. 1 and table 1) ([1]; PQQ 0 to 100 mg/Liter of LB media, 6, 8, 9.5 hours): decreases as the concentration of purified PQQ increases | OD600 ([1]; PQQ 0.1 mg/L, 6 Hours): 0.143 | OD600 ([1]; PQQ 0.1 mg/L, 8 Hours): 0.331 | OD600 ([1]; PQQ 0.1 mg/L, 9.5 Hours): 0.401 | OD600 ([1]; PQQ 1 mg/L, 6 Hours): 0.145 | OD600 ([1]; PQQ 1 mg/L, 8 Hours): 0.335 | OD600 ([1]; PQQ 1 mg/L, 9.5 Hours): 0.408 | OD600 ([1]; PQQ 25 mg/L, 6 Hours): 0.087 | OD600 ([1]; PQQ 25 mg/L, 8 Hours): 0.268 | OD600 ([1]; PQQ 25 mg/L, 9.5 Hours): 0.356 | OD600 ([1]; PQQ 50 mg/L, 6 Hours): 0.052 | OD600 ([1]; PQQ 50 mg/L, 8 Hours): 0.169 | OD600 ([1]; PQQ 50 mg/L, 9.5 Hours): 0.298 | OD600 ([1]; PQQ 75 mg/L, 6 Hours): 0.04 | OD600 ([1]; PQQ 75 mg/L, 8 Hours): 0.122 | OD600 ([1]; PQQ 75 mg/L, 9.5 Hours): 0.239 | OD600 ([1]; PQQ 100 mg/L, 6 Hours): 0.03 | OD600 ([1]; PQQ 100 mg/L, 8 Hours): 0.088 | OD600 ([1]; PQQ 100 mg/L, 9.5 Hours): 0.192 | solubility [2]: 1000 to 2000 µg/mL (≈ 3.03 to 6.06 mM) | DNA cleavage [3]: induce DNA cleavage at thymine and cytosine residue sites | OD600 ([4]; PQQ 0.1 mg/L, 6 Hours): 0.303 | OD600 ([4]; PQQ 0.1 mg/L, 8 Hours): 0.416 | OD600 ([4]; PQQ 0.1 mg/L, 9.5 Hours): 0.451 | OD600 ([4]; PQQ 1 mg/L, 6 Hours): 0.293 | OD600 ([4]; PQQ 1 mg/L, 8 Hours): 0.445 | OD600 ([4]; PQQ 1 mg/L, 9.5 Hours): 0.452 | OD600 ([4]; PQQ 25 mg/L, 6 Hours): 0.251 | OD600 ([4]; PQQ 25 mg/L, 8 Hours): 0.433 | OD600 ([4]; PQQ 25 mg/L, 9.5 Hours): 0.472 | OD600 ([4]; PQQ 50 mg/L, 6 Hours): 0.208 | OD600 ([4]; PQQ 50 mg/L, 8 Hours): 0.413 | OD600 ([4]; PQQ 50 mg/L, 9.5 Hours): 0.457 | OD600 ([4]; PQQ 75 mg/L, 6 Hours): 0.165 | OD600 ([4]; PQQ 75 mg/L, 8 Hours): 0.386 | OD600 ([4]; PQQ 75 mg/L, 9.5 Hours): 0.446 | OD600 ([4]; PQQ 100 mg/L, 6 Hours): 0.163 | OD600 ([4]; PQQ 100 mg/L, 8 Hours): 0.378 | OD600 ([4]; PQQ 100 mg/L, 9.5 Hours): 0.431 | isoelectric point [5]: 2.75 pH | amount of bacteria (OD600, FIG. 2) [6]: the amount of bacteria decreases as the purified PQQ concentration increases
